Data on 36 compounds can be found in patent US12637468B2, “Substituted [1,2,4]triazolo[4,3-b]pyridazines as GABAA receptor modulators” (SHANGHAI SIMR BIOTECHNOLOGY CO., LTD., priority 2019, dated 2026).

The target in data set [1] is T1, α5-GABAA receptor (Homo sapiens, UniProt P18507+P31644).
T1 construct: expressed in transfected cells; host or cells: HEK293, monoclonal stably transfected line
Description: Cell-level screening: whole cell patch clamp, inverse agonist efficacy on α5-GABAA receptor expressed in HEK293. Format: cell-based. Particulars: drug 100 nM, GABA 0.05 μM, HEK293 expressing α5, β3 and γ2 subunits, clamped at −60 mV; read-out: Compound inverse agonist efficacy %. An outline of the steps:
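Whole-cell patch clamp at −60 mV on HEK293 stably expressing α5β3γ2, pH 7.4 extracellular/CsCl internal solutions. Current evoked by 0.05 μM GABA, then compound in GABA solution; screening at 100 nM, dose-response 0.3–300 nM. Inverse agonist efficacy as % change of GABA current.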

Data set [2] can be described thus: Thermodynamic solubility in simulated intestinal fluid (TS in FaSSIF). The format is physicochemical. The conditions noted are these: thermodynamic from solid, 37° C. The procedure:
Simulated intestinal fluid FaSSIF: 54.76 mg of FaSSIF-V2 (Biorelevant, batch. V2FAS-0619-A, lot. V2FAS01) was weighed and added to 15 mL of a buffer solution. After dissolving, the solution was supplemented to 30 mL, and put at room temperature for 1 hour before use.
Waters e2695 HPLC high performance liquid chromatography, Mettler XSE105 analytical balance.
Firstly, a 10 mM stock solution was prepared with DMSO, and was diluted with a diluent (ACN: PB buffer 50:50) into 1 μM-200 μM as a standard solution.
Thermodynamic solubility in intestinal fluid (TS in FaSSIF) was simulated. About 0.3 mg of each sample was weighed and added to 1.5 mL of FaSSIF solution, with two parts in parallel, shaken at 1000 rpm at 37° C. for 4 hours, filtered. 1 mL of an initial filtrate was discarded, and 400 μL of the subsequent filtrate was taken. The filtrate was detected by high performance liquid chromatograph (UV).

The nature of data set [3]: Rat liver microsome stability (RLM) experiment. The format is in vitro ADME. The conditions noted are these: rat liver microsomal stability, Table 5, compounds of the disclosure and comparative compounds. Here is the method:
Effect embodiment 3 Rat liver microsome stability (RLM) experiment
Rat liver microsomes (Xenotech, item No. R1000, lot No. 1310030), 100 mM potassium phosphate buffer solution (pH 7.4), 10 mM magnesium chloride.
Compound preparation: 5 μL of compound DMSO mother liquor (10 mM) was added to 495 μL of methanol to obtain an intermediate solution with a compound concentration of 100 μM. Then 50 μL of the intermediate solution was taken and dissolved in 450 μL of potassium phosphate buffer solution to obtain a test solution with a final concentration of 10 μM.
NADPH regeneration system (concentration of isocitrate dehydrogenase 1 unit/mL).
Liver microsomes (final concentration 0.5 mg protein/mL).
Reaction termination solution: cold acetonitrile containing 100 ng/mL Tolbutamide and 100 ng/mL Labetalol as an internal standard.
• (1) Preparation of buffer solution: • Buffer solution A: 1.0 L of 0.1 M potassium phosphate buffer solution containing 1.0 mM EDTA • Buffer solution B: 1.0 L of 0.1 M dipotassium phosphate buffer solution containing 1.0 mM EDTA • Buffer solution C: 0.1 M potassium phosphate buffer, 1.0 mM EDTA, pH 7.4, titrated with 700 mL of buffer solution B and buffer solution A, monitored by pH meter. • (2) Preparation of reference substance (ketanserin) and concentration of administration solution of the test substance:
[…]: […] 10 mM DMSO reference substance stock solution and test substance stock solution were added to 190 μL of ACN, respectively. 1.5 μM administration solution (containing 0.75 mg/mL liver microsomes): […] administration solution and 18.75 μL of 20 mg/mL liver microsomes were added to 479.75 μL of buffer C on a wet ice. • (3) NADPH was added to buffer solution C to obtain a NADPH stock solution (6 mM). • (4) 30 μL of 1.5 μM administration solution (containing 0.75 mg/mL of liver microsomes) was taken on the wet ice and added to the wells of the test plate at different time points (0-, 5-, 15-, 30-, 45-min), respectively. • (5) Firstly, 135 μL of ACN containing IS was added to the wells of a 0 min test plate, and then 15 μL of the NADPH stock solution (6 mM) was added. • (6) The test plate at other time points and the NADPH stock solution were pre-heated in a 37° C. water bath for 5 minutes. • (7) 15 μL of the NADPH stock solution (6 mM) was taken and added to a pre-incubated test plate, and the reaction was started and timed. • (8) At 5 min, 15 min, 30 min and 45 min, 135 μL of CAN containing IS was added to the corresponding test plate respectively, and the test was completed. • (9) Test plates were shaken with a shaker (IKA, MTS 2/4) for 10 min (600 rpm/min) and then centrifuged for 15 min (Thermo Multifuge×3R, 5594 g). • (10) 50 μL of supernatant from each well was added to a 96-well sample plate containing 50 μL of ultrapure water (Millipore, ZMQS50F01), and the samples were analyzed by LC/MS.

Molecules are shown by their SMILES. In brackets after ≈: the same amount, converted by molar mass.

T1 sequence (P31644 32-462): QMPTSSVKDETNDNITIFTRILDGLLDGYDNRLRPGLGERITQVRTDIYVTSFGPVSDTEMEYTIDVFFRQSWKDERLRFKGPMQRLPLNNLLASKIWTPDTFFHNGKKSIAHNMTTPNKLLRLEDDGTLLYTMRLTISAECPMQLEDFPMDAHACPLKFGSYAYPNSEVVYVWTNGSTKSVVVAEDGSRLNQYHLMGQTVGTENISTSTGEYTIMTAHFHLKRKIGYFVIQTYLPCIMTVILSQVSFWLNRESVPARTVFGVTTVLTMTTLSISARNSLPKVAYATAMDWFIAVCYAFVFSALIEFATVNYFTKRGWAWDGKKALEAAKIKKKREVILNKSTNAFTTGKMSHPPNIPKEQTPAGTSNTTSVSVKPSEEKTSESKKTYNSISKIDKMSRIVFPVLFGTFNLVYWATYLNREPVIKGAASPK
T1 sequence (P28472 26-473 partner): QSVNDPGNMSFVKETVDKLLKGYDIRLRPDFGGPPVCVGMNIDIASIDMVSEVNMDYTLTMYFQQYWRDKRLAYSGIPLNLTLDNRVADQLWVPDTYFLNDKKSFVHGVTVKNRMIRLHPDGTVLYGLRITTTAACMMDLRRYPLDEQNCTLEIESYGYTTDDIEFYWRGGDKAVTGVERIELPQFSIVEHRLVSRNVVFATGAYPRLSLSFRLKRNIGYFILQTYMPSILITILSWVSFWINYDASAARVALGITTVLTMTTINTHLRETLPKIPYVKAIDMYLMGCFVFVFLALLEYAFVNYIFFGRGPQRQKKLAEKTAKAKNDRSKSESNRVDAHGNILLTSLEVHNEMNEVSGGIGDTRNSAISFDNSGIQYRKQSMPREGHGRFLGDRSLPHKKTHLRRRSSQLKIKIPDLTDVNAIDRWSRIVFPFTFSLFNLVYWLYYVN
T1 sequence (P18507 40-467 isoform P18507-1 limits assumed): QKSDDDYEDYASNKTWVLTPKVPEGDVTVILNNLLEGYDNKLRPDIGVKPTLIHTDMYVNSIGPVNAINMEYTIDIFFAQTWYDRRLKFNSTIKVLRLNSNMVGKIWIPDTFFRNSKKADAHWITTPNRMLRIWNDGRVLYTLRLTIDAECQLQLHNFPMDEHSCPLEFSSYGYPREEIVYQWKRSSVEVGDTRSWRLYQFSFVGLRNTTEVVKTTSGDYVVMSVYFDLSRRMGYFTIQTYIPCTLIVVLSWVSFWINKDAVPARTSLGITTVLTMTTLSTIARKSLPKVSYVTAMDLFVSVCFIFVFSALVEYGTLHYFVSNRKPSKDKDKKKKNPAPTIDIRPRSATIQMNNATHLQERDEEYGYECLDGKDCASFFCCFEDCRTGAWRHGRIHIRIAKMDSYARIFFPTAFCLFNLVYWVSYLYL

For the compound `COc1cc2nnc(-c3cc(C)on3)n2nc1OCc1ccc(OCC2(C)COC2)nn1` [Embodiment 150], the inhibition at 0.1 µM in data set [1] is 46.2%. The compound further returned a solubility (thermodynamic) at 4 h in data set [2] of 263 µg/mL (≈ 598 µM).

`COCCCOc1cc(C)c(COc2nn3c(-c4cc(C)on4)nnc3cc2OC)nn1` [Embodiment 156]: the inhibition at 0.1 µM in data set [1] is 40.5%. The same compound yielded a thermodynamic solubility at 4 h in data set [2] of 73.8 µg/mL (≈ 167 µM). For `COc1cc2nnc(-c3cc(C)on3)n2nc1OCc1cnnn1C` [Embodiment 158], the inhibition at 0.1 µM in data set [1] is 53.1%. In data set [2], this compound gave a thermodynamic solubility at 4 h of 38.2 µg/mL (≈ 112 µM). Taken in the same sequence, the figures for `COc1cc2nnc(-c3cc(C)on3)n2nc1OCc1ccc(OCC2CCOC2)nn1` (centres unmarked) [Embodiment 162] were 36.6% and 237 µg/mL (≈ 538 µM). The like results for `COc1cc2nnc(-c3cc(C)on3)n2nc1OCc1ccc(OCCN2CCN(C)CC2)nn1` [Embodiment 163] were, in that order, 45.2% and 179 µg/mL (≈ 373 µM). The like results for `COc1cc2nnc(-c3cc(C)on3)n2nc1OCc1ccc(OCCN2CCOCC2)nn1` [Embodiment 164] were, in that order, 33.9% and 309 µg/mL (≈ 660 µM). Take `CCN1CCC(c2cccc(COc3nn4c(-c5cc(C)on5)nnc4cc3OC)n2)CC1` [Embodiment 167]: the inhibition at 0.1 µM in data set [1] stood at 42.5%. In addition, in data set [2], the thermodynamic solubility at 4 h is 408 µg/mL (≈ 907 µM). The like results for `CCOCCCOc1ccc(COc2nn3c(-c4cc(C)on4)nnc3cc2OC)nn1` [Embodiment 168] were, in that order, 37.5% and 59.9 µg/mL (≈ 136 µM). The like results for `COc1cc2nnc(-c3cc(C)on3)n2nc1OCc1ccc(CN2CCC2)cn1` [Embodiment 169] were, in that order, 40.7% and 306 µg/mL (≈ 752 µM). The like results for `COc1cc2nnc(-c3cc(C)on3)n2nc1OCc1ccc(OCC2(C)COC2)cn1` [Embodiment 170] were, in that order, 32.9% and 66.1 µg/mL (≈ 151 µM). Consider `COc1cc2nnc(-c3cc(C)on3)n2nc1OCc1ccc(OCC2CCOC2)cn1` (centres unmarked) [Embodiment 173], for which the inhibition at 0.1 µM in data set [1] came to 58.8%. The compound also yielded a solubility (thermodynamic) at 4 h in data set [2] of 32.8 µg/mL (≈ 74.8 µM). The like results for `COc1cc2nnc(-c3cc(C)on3)n2nc1OCc1ccc(OC2CCOCC2)cn1` [Embodiment 174] were, in that order, 43.5% and 35.4 µg/mL (≈ 80.8 µM). Turning to `COc1cc2nnc(-c3cc(C)on3)n2nc1OCc1ccc(OC2CC3(COC3)C2)nn1` [Embodiment 179], the inhibition at 0.1 µM in data set [1] is 39%. Also, in data set [2], the solubility (thermodynamic) at 4 h is 44.9 µg/mL (≈ 99.5 µM). Taken in the same sequence, the figures for `COc1cc2nnc(-c3cc(C)on3)n2nc1OCc1cc(OC2COC2)cnn1` [Embodiment 180] were 65.4% and 146 µg/mL (≈ 356 µM). Taken in the same sequence, the figures for `COc1cc2nnc(-c3cc(C)on3)n2nc1OCc1ccc2c(n1)CCN(CC(=O)N1CCCC1)C2` [Embodiment 189] were 52.4% and 75.8 µg/mL (≈ 150 µM). On to `COc1cc2nnc(-c3cc(C)on3)n2nc1OCc1ccc2c(n1)CCN(CC(=O)N(C)C)C2` [Embodiment 193], for which the inhibition at 0.1 µM in data set [1] turned out to be 32.6%. In data set [2], the thermodynamic solubility at 4 h was 200 µg/mL (≈ 418 µM).

On to `COc1cc2nnc(-c3cc(C)on3)n2nc1OCc1ccc2c(n1)CCN(C1CN(C(=O)C3CC3)C1)C2` [Embodiment 198], for which, in data set [1], the inhibition at 0.1 µM was 55.9%. Also, in data set [2], the solubility (thermodynamic) at 4 h was 204 µg/mL (≈ 395 µM). Taken in the same sequence, the figures for `COc1cc2nnc(-c3cc(C)on3)n2nc1OCc1ccc2c(n1)CCN(CC1(C)COC1)C2` [Embodiment 200] were 37.4% and 228 µg/mL (≈ 479 µM). The like results for `COc1cc2nnc(-c3cc(C)on3)n2nc1OCc1ccc2c(n1)CCN(C(=O)N1CCOCC1)C2` [Embodiment 202] were, in that order, 57.4% and 32.6 µg/mL (≈ 64.3 µM).

On to `COc1cc2nnc(-c3cc(C)on3)n2nc1OCc1ccc2c(n1)CCN(C(=O)N(C)C)C2` [Embodiment 203], for which, in data set [1], the inhibition at 0.1 µM worked out at 63.6%. The compound also had a thermodynamic solubility at 4 h in data set [2] of 264 µg/mL (≈ 569 µM). Taken in the same sequence, the figures for `COc1cc2nnc(-c3cc(C)on3)n2nc1OCc1ccc2c(n1)CCN(C(=O)C(C)(C)C)C2` [Embodiment 206] were 44.7% and 34.8 µg/mL (≈ 72.8 µM).

As for `COc1cc2nnc(-c3cc(C)on3)n2nc1OCc1ccc2c(n1)CCN(C(=O)NCC(F)(F)F)C2` [Embodiment 208], the inhibition at 0.1 µM in data set [1] was determined as 52.2%. The compound also displayed a thermodynamic solubility at 4 h in data set [2] of 34 µg/mL (≈ 65.5 µM). The like results for `CCS(=O)(=O)N1CCc2nc(COc3nn4c(-c5cc(C)on5)nnc4cc3OC)ccc2C1` [Embodiment 210] were, in that order, 43.4% and 47 µg/mL (≈ 96.8 µM). For the compound `COc1cc2nnc(-c3cc(C)on3)n2nc1OCc1ccc2nnc(C(C)C)n2n1` [Embodiment 214], the inhibition at 0.1 µM in data set [1] turned out to be 34.9%. This compound also yielded a solubility (thermodynamic) at 4 h in data set [2] of 237 µg/mL (≈ 562 µM).

For `COc1cc2nnc(-c3cc(C)on3)n2nc1OCc1ccc2nnc(C)n2n1` [Embodiment 216], the inhibition at 0.1 µM in data set [1] came out at 52.1%. The compound further displayed a thermodynamic solubility at 4 h in data set [2] of 167 µg/mL (≈ 425 µM). As to `COc1cc2nnc(-c3cc(C)on3)n2nc1OCc1ccn2c(C3CCOCC3)nnc2n1` [Embodiment 217], in data set [1], the inhibition at 0.1 µM worked out at 45.6%. The thermodynamic solubility at 4 h in data set [2] is 57.6 µg/mL (≈ 124 µM). For the compound `COc1cc2nnc(-c3cc(C)on3)n2nc1OCc1ccc2nn(C3CCOC3)cc2n1` (centres unmarked) [Embodiment 231], the inhibition at 0.1 µM in data set [1] is 40.3%. The compound also displayed a solubility (thermodynamic) at 4 h in data set [2] of 30.6 µg/mL (≈ 68.1 µM). The like results for `COc1cc2nnc(-c3cc(C)on3)n2nc1OCc1ccc2c(cnn2C2CCOC2)n1` (centres unmarked) [Embodiment 232] were, in that order, 53.4% and 59 µg/mL (≈ 131 µM). The like results for `COc1cc2nnc(-c3cc(C)on3)n2nc1OCc1ccc2nn(C3CN(C)C3)cc2n1` [Embodiment 233] were, in that order, 41.3% and 245 µg/mL (≈ 547 µM). Consider `COc1cc2nnc(-c3cc(C)on3)n2nc1OCc1ccc2c(cnn2C2CN(C)C2)n1` [Embodiment 234], for which the inhibition at 0.1 µM in data set [1] came to 53.2%. The same compound yielded a thermodynamic solubility at 4 h in data set [2] of 266 µg/mL (≈ 594 µM).

On to `COCCn1ncc2nc(COc3nn4c(-c5cc(C)on5)nnc4cc3OC)ccc21` [Embodiment 241], for which, in data set [1], the inhibition at 0.1 µM was found to be 51.3%. Also, the solubility (thermodynamic) at 4 h in data set [2] is 91.8 µg/mL (≈ 210 µM).

For `COc1cc2nnc(-c3cc(C)on3)n2nc1OCc1ccc2ncn(C3CCOCC3)c2n1` [Embodiment 247], in data set [1], the inhibition at 0.1 µM stood at 60.4%. The solubility (thermodynamic) at 4 h in data set [2] is 32.7 µg/mL (≈ 70.8 µM). `COc1cc2nnc(-c3cc(C)on3)n2nc1OCc1ccccn1` [drawing 922]: in data set [3], the RLM stood at 0.3 µL/min/mg.

Take `Cc1cc(-c2nnc3c4ccccc4c(OCc4ccccn4)nn23)no1` [drawing 923, reference compound]: in data set [3], the RLM was 28.2 µL/min/mg.

For `Cc1cc(-c2nnc3cc(C(C)(C)C)c(OCc4ccccn4)nn23)no1` [drawing 924, reference compound], the RLM in data set [3] is 33.6 µL/min/mg.

In turn, `CCNC(=O)c1ccc(COc2nn3c(-c4cc(C)on4)nnc3cc2OC)nc1` [drawing 925] displayed an RLM in data set [3] of 11.4 µL/min/mg.
